Measured values: patent publication US9452977B2, “Cyclopentylacrylamide derivative” (KYORIN PHARMACEUTICAL CO., LTD., priority 2008, dated 2016)

Target: T1, human hepatic GK (Homo sapiens, UniProt P35557)
T1 construct: His6 (C); made in house; host or cells: E. coli
T1 sequence (P35557 1-466 isoform P35557-2): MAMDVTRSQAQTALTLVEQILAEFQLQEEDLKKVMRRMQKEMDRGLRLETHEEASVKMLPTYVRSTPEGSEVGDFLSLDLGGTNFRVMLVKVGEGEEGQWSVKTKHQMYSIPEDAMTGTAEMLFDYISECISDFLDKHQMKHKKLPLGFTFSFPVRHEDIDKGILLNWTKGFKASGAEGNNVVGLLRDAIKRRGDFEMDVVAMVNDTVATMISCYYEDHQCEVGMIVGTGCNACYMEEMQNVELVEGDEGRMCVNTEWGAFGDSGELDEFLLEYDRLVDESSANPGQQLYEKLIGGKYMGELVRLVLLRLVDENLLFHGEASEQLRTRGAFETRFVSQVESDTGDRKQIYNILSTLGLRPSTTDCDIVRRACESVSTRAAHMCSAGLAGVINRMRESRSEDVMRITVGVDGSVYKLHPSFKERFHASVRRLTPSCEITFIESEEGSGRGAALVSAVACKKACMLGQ
Test: GK activity measurement (G6PDH-coupled NADH production)
Type: biochemical
Details: GK activation; 5 mM D-glucose
Description: The GK activity was determined not by direct measurement of the amount of glucose-6-phosphate produced by the enzyme reaction but by measurement of the amount of NADH produced by a […] reaction.
(Preparation of Recombinant GK)
Cloning of Human Hepatic GK and Human Pancreas GK and Acquisition of Recombinant Proteins
Based on a human hepatic GK sequence available from GeneBank (Accession Number: NM_033507) and a human pancreas GK sequence (Accession Number: NM_000162), PCR cloning was performed using Pyrobest DNA Polymerase (product of Takara Bio Inc.) with human hepatic cDNA (product of Clontech Laboratories, Inc.) and human pancreas cDNA (product of Clontech Laboratories, Inc.) used as templates. […]
The test compound was dissolved in DMSO in advance, and 2 μL of the prepared solution was added to 20 μL of a solution containing the HEPES buffer solution (pH 7.1), KCl, MgCl2, D-glucose, ATP, NAD, and dithiothreitol. […] The GK was added such that an increase in absorbance per minute in the presence of 5% DMSO was between 0.002 to 0.003. After the reaction was initiated, the increase in absorbance at 340 nm was measured for 15 minutes using a SPECTRAmax 190 microplate spectrophotometer (product of Molecular Devices Corporation), and the activity was evaluated using the increase in the first 10 minutes.

- EC50: ≤ 1000 nM
Compound: CS(=O)(=O)c1ccc(/C(=C\[C@H]2C[C@@H](F)[C@@H](F)C2)C(=O)Nc2nccs2)cc1 [Compound 1A, (E)-3-[(1α,3α,4α)-3,4-difluorocyclopentyl]-2-[4-(methylsulfonyl)phenyl]-N-(thiazol-2-yl)acrylamide]
